Assay results as given in ChEMBL document CHEMBL3045875, “Design, synthesis, and biological evaluation studies of novel quinazolinone derivatives as anticonvulsant agents” (Med Chem Res, 2013).

What was measured:
Mus musculus [1] = experiment: Anticonvulsant activity in Swiss albino Mus musculus (mouse) assessed as protection against Maximal electric shock-induced seizures at 0.5 mmol/kg, ip administered 30 min prior to electric shock-challenge relative to control; format: functional
Mus musculus [2] = experiment: Anticonvulsant activity in Swiss albino Mus musculus (mouse) assessed as protection against PTZ-induced seizures at 0.5 mmol/kg, i.p. administered 30 min prior to PTZ-challenge relative to control; format: functional
Mus musculus [3] = experiment: Anticonvulsant activity in ip dosed Swiss albino Mus musculus (mouse) assessed as protection against PTZ-induced seizures administered 30 min prior to PTZ-challenge; format: functional
Mus musculus [4] = experiment: Anticonvulsant activity in Swiss albino Mus musculus (mouse) assessed as protection against Maximal electric shock-induced seizures at 0.8 mmol/kg, ip administered 30 min prior to electric shock-challenge relative to control; format: functional
Mus musculus [5] = experiment: Anticonvulsant activity in Swiss albino Mus musculus (mouse) assessed as protection against PTZ-induced seizures at 0.8 mmol/kg, i.p. administered 30 min prior to PTZ-challenge relative to control; format: functional
Mus musculus [6] = species: Mus musculus; experiment: Protective index, ratio of TD50 to ED50 in Swiss albino Mus musculus (mouse)
[7] = Neurotoxicity in ip dosed Swiss albino Mus musculus (mouse) after 4 hr by rotarod test; format: toxicity, organism-based; conditions: in vivo
[8] = Therapeutic index, ratio of LD50 to ED50 in Swiss albino Mus musculus (mouse); format: organism-based; conditions: in vivo, read-out: Ratio LD50/ED50
[9] = Toxicity in ip dosed Swiss albino Mus musculus (mouse) assessed as mortality; format: organism-based; conditions: in vivo
Mus musculus [10] = experiment: Anticonvulsant activity in Swiss albino Mus musculus (mouse) assessed as protection against Maximal electric shock-induced seizures at 1.8 mmol/kg, ip administered 30 min prior to electric shock-challenge relative to control; format: functional
Mus musculus [11] = experiment: Anticonvulsant activity in Swiss albino Mus musculus (mouse) assessed as protection against PTZ-induced seizures at 1.8 mmol/kg, i.p. administered 30 min prior to PTZ-challenge relative to control; format: functional

Compound	Activity (Mus musculus [1])	Activity (Mus musculus [2])	ED50 (Mus musculus [3])	TD50 at 4 h [7]	also measured
Cc1nc2c(I)cc(I)cc2c(=O)n1Cc1cccc(Cl)c1	66%	100%	–	–	–
Cc1ccccc1-n1c(C)nc2ccccc2c1=O [METHAQUALONE]	–	–	200 mg/kg	400 mg/kg	Activity (Mus musculus [4]): 100%; Activity (Mus musculus [5]): 100%; Ratio TD50/ED50 (Mus musculus [6]): 2
COc1ccc(Cn2c(C)nc3c(I)cc(I)cc3c2=O)cc1	33%	66%	–	–	–
Cc1nc2c(I)cc(I)cc2c(=O)n1Cc1ccc(Br)cc1	100%	100%	138 mg/kg	330 mg/kg	Ratio TD50/ED50 (Mus musculus [6]): 2.39; selectivity ratio [8]: 4.09; LD50 [9]: 565 mg/kg
Cc1nc2ccccc2c(=O)n1Cc1ccc(Br)cc1	66%	66%	–	–	–
CCCC(CCC)C(=O)[O-].[Na+] [VALPROATE SODIUM]	–	–	300 mg/kg	450 mg/kg	Activity (Mus musculus [10]): 100%; Activity (Mus musculus [11]): 100%
Cc1nc2ccc(I)cc2c(=O)n1Cc1ccc(Br)cc1	66%	66%	–	–	–
Cc1nc2c(I)cc(I)cc2c(=O)n1Cc1ccc(F)cc1	100%	100%	160 mg/kg	360 mg/kg	Ratio TD50/ED50 (Mus musculus [6]): 2.25; selectivity ratio [8]: 2.62; LD50 [9]: 420 mg/kg
Cc1nc2c(I)cc(I)cc2c(=O)n1Cc1ccc(Cl)cc1	100%	100%	150 mg/kg	280 mg/kg	Ratio TD50/ED50 (Mus musculus [6]): 1.87; selectivity ratio [8]: 4; LD50 [9]: 600 mg/kg
Cc1nc2c(I)cc(I)cc2c(=O)n1Cc1ccc(Cl)c(Cl)c1	66%	66%	–	–	–
Cc1nc2c(I)cc(I)cc2c(=O)n1-c1ccc(Br)cc1	66%	100%	–	–	–
Cc1nc2c(I)cc(I)cc2c(=O)n1Cc1ccc(I)cc1	66%	66%	–	–	–
Cc1nc2c(I)cc(I)cc2c(=O)n1Cc1cccc(C(F)(F)F)c1	33%	50%	–	–	–
Cc1ccc(Cn2c(C)nc3c(I)cc(I)cc3c2=O)cc1	33%	50%	–	–	–
Cc1nc2c(I)cc(I)cc2c(=O)n1Cc1ccccc1	50%	66%	–	–	–
Cc1nc2c(I)cc(I)cc2c(=O)n1Cc1cccc([N+](=O)[O-])c1	66%	100%	–	–	–
